Measured values: PMC6637912 (Molecular Plant Pathology, 2019)
Like-named read-outs stand apart in the source and are kept apart here.

Molecular target: T1, RipN (Ralstonia pseudosolanacearum, UniProt Q8XQT8)
T1 construct: gene RSp1130
Details: Mg2+ important, NEBuffer 3, 30 min

T1 sequence (Q8XQT8 1-474): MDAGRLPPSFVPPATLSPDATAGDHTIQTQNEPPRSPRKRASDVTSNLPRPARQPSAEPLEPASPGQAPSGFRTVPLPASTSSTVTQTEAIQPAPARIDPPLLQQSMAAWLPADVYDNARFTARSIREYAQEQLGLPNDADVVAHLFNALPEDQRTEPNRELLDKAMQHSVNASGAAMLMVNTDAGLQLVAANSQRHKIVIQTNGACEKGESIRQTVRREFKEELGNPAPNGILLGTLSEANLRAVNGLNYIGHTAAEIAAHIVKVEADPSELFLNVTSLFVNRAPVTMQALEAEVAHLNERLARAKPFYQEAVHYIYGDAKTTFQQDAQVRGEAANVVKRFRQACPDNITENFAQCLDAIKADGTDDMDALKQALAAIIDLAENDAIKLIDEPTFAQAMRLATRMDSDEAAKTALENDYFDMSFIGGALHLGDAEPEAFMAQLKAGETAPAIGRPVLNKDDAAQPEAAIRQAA

Row | SMILES | phosphate colorimetric assay coupled to alkaline phosphatase (optimum pH 7.9-8.5) | phosphate colorimetric assay coupled to alkaline phosphatase
1 | Nc1ncnc2c1ncn2[C@@H]1O[C@H](COP(=O)(O)OP(=O)(O)OC[C@H]2OC(O)[C@H](O)[C@@H]2O)[C@@H](O)[C@H]1O (some centres unmarked) [ADPr] | RipN can hydrolyse ADPr, NADH, NAD, FAD (flavin adenine dinucleotide) and Ap4A | –
2 | NC(=O)C1=CN([C@@H]2O[C@H](COP(=O)(O)OP(=O)(O)OC[C@H]3O[C@@H](n4cnc5c(N)ncnc54)[C@H](O)[C@@H]3O)[C@@H](O)[C@H]2O)C=CC1 [NADH] | – | with ADPr and NADH being the preferred substrates in vitro
